According to PubChem BioAssay AID1963977 (Molecular Pharmacology Branch, DTP, NCI, 2024):

System: 624824-186-R-J3-PDC multicell spheroids, viability
Test: Anticancer human tumor 624824-186-R-J3-PDC patient-derived colon adenocarcinoma cell line growth inhibition [PI3K]
Conditions: for IC50: curve of first compound; for viability, T/C: stronger effect = lower value
Method in brief: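 Targeted small molecules plus PI3K inhibitors, half-log dose series from Cmax (default top 10 microM), were applied to heterotypic spheroids of cancer cells with HUVEC and MSCs. Viability indicated growth inhibition.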

[1] = second compound 0.0316 µM, first compound 0.0316 µM
[2] = second compound 0.0316 µM, first compound 0.1 µM
[3] = second compound 0.0316 µM, first compound 0.316 µM
[4] = second compound 0.0316 µM, first compound 1 µM
[5] = second compound 0.0316 µM, first compound 3.16 µM
[6] = second compound 0.0316 µM, first compound 10 µM
[7] = second compound 0.1 µM, first compound 0.0316 µM
[8] = second compound 0.1 µM, first compound 0.1 µM
[9] = second compound 0.1 µM, first compound 0.316 µM
[10] = second compound 0.1 µM, first compound 1 µM
[11] = second compound 0.1 µM, first compound 3.16 µM
[12] = second compound 0.1 µM, first compound 10 µM
[13] = second compound 0.316 µM, first compound 0.0316 µM
[14] = second compound 0.316 µM, first compound 0.1 µM
[15] = second compound 0.316 µM, first compound 0.316 µM
[16] = second compound 0.316 µM, first compound 1 µM
[17] = second compound 0.316 µM, first compound 3.16 µM
[18] = second compound 0.316 µM, first compound 10 µM
[19] = second compound 1 µM, first compound 0.0316 µM
[20] = second compound 1 µM, first compound 0.1 µM
[21] = second compound 1 µM, first compound 0.316 µM
[22] = second compound 1 µM, first compound 1 µM
[23] = second compound 1 µM, first compound 3.16 µM
[24] = second compound 1 µM, first compound 10 µM
[25] = second compound 3.16 µM, first compound 0.0316 µM
[26] = second compound 3.16 µM, first compound 0.1 µM
[27] = second compound 3.16 µM, first compound 0.316 µM
[28] = second compound 3.16 µM, first compound 1 µM
[29] = second compound 3.16 µM, first compound 3.16 µM
[30] = second compound 3.16 µM, first compound 10 µM
[31] = second compound 10 µM, first compound 0.0316 µM
[32] = second compound 10 µM, first compound 0.1 µM
[33] = second compound 10 µM, first compound 0.316 µM
[34] = second compound 10 µM, first compound 1 µM
[35] = second compound 10 µM, first compound 3.16 µM
[36] = second compound 10 µM, first compound 10 µM
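Note: spheroids exposed to agents for seven days before luminescence read.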
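Throughout, for viability, T/C: luminescent signal used as a stand-in for spheroid viability; percent viability relative to DMSO vehicle control wells taken as 100%.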

C#Cc1c(F)ccc2cc(O)cc(-c3ncc4c(N5CC6CCC(C5)N6)nc(OCC56CCCN5CC(F)C6)nc4c3F)c12 (stereo unspecified) + Cc1nc(NC(=O)N2CCCC2C(N)=O)sc1-c1ccnc(C(C)(C)C(F)(F)F)c1
IC50 (second compound 0.0316 µM): > 10 µM
IC50 (second compound 0.1 µM): > 10 µM
IC50 (second compound 0.316 µM): > 10 µM
IC50 (second compound 1 µM): > 10 µM
IC50 (second compound 3.16 µM): > 10 µM
IC50 (second compound 10 µM): > 10 µM
viability, T/C [1]: 108%
viability, T/C [2]: 97%
viability, T/C [3]: 121%
viability, T/C [4]: 102%
viability, T/C [5]: 108%
viability, T/C [6]: 100%
viability, T/C [7]: 111%
viability, T/C [8]: 98.2%
viability, T/C [9]: 94.9%
viability, T/C [10]: 103%
viability, T/C [11]: 116%
viability, T/C [12]: 102%
viability, T/C [13]: 103%
viability, T/C [14]: 102%
viability, T/C [15]: 108%
viability, T/C [16]: 101%
viability, T/C [17]: 112%
viability, T/C [18]: 108%
viability, T/C [19]: 100%
viability, T/C [20]: 97.4%
viability, T/C [21]: 114%
viability, T/C [22]: 100%
viability, T/C [23]: 112%
viability, T/C [24]: 107%
viability, T/C [25]: 88.9%
viability, T/C [26]: 88.2%
viability, T/C [27]: 83%
viability, T/C [28]: 85.2%
viability, T/C [29]: 98.2%
viability, T/C [30]: 80.4%
viability, T/C [31]: 71.4%
viability, T/C [32]: 70.9%
viability, T/C [33]: 68.9%
viability, T/C [34]: 64.6%
viability, T/C [35]: 58.8%
viability, T/C [36]: 54.3%

CNC(=O)c1ccc(N2C(=S)N(c3ccc(C#N)c(C(F)(F)F)c3)C(=O)C2(C)C)cc1F + CC(Nc1ncnc2nc[nH]c12)c1cc2cccc(Cl)c2c(=O)n1-c1ccccc1
IC50 (second compound 0.0316 µM): > 10 µM
IC50 (second compound 0.1 µM): > 10 µM
IC50 (second compound 0.316 µM): > 10 µM
IC50 (second compound 1 µM): > 10 µM
IC50 (second compound 3.16 µM): > 10 µM
IC50 (second compound 10 µM): > 10 µM
viability, T/C [1]: 107%
viability, T/C [2]: 102%
viability, T/C [3]: 110%
viability, T/C [4]: 97.1%
viability, T/C [5]: 92.8%
viability, T/C [6]: 102%
viability, T/C [7]: 97.7%
viability, T/C [8]: 101%
viability, T/C [9]: 104%
viability, T/C [10]: 108%
viability, T/C [11]: 106%
viability, T/C [12]: 116%
viability, T/C [13]: 96.6%
viability, T/C [14]: 93.3%
viability, T/C [15]: 105%
viability, T/C [16]: 94.2%
viability, T/C [17]: 105%
viability, T/C [18]: 117%
viability, T/C [19]: 98.8%
viability, T/C [20]: 101%
viability, T/C [21]: 107%
viability, T/C [22]: 117%
viability, T/C [23]: 104%
viability, T/C [24]: 101%
viability, T/C [25]: 100%
viability, T/C [26]: 100%
viability, T/C [27]: 112%
viability, T/C [28]: 91.5%
viability, T/C [29]: 108%
viability, T/C [30]: 107%
viability, T/C [31]: 99.1%
viability, T/C [32]: 95.2%
viability, T/C [33]: 100%
viability, T/C [34]: 88.1%
viability, T/C [35]: 93.2%
viability, T/C [36]: 97.9%

CC(=O)c1c(C)c2cnc(Nc3ccc(N4CCNCC4)cn3)nc2n(C2CCCC2)c1=O + CC(Nc1ccc2c(c1)OCCn1cc(N3C(=O)OCC3C(F)F)nc1-2)C(N)=O
IC50 (second compound 0.00316 µM): > 0.1 µM
IC50 (second compound 0.01 µM): > 0.1 µM
IC50 (second compound 0.0316 µM): > 0.1 µM
IC50 (second compound 0.1 µM): > 0.1 µM
IC50 (second compound 0.316 µM): > 0.1 µM
IC50 (second compound 1 µM): > 0.1 µM
viability, T/C (second compound 0.00316 µM, first compound 0.000316 µM): 100%
viability, T/C (second compound 0.00316 µM, first compound 0.001 µM): 101%
viability, T/C (second compound 0.00316 µM, first compound 0.00316 µM): 101%
viability, T/C (second compound 0.00316 µM, first compound 0.01 µM): 105%
viability, T/C (second compound 0.00316 µM, first compound 0.0316 µM): 99%
viability, T/C (second compound 0.00316 µM, first compound 0.1 µM): 110%
viability, T/C (second compound 0.01 µM, first compound 0.000316 µM): 108%
viability, T/C (second compound 0.01 µM, first compound 0.001 µM): 94.6%
viability, T/C (second compound 0.01 µM, first compound 0.00316 µM): 106%
viability, T/C (second compound 0.01 µM, first compound 0.01 µM): 102%
viability, T/C (second compound 0.01 µM, first compound 0.0316 µM): 108%
viability, T/C (second compound 0.01 µM, first compound 0.1 µM): 106%
viability, T/C (second compound 0.0316 µM, first compound 0.000316 µM): 101%
viability, T/C (second compound 0.0316 µM, first compound 0.001 µM): 105%
viability, T/C (second compound 0.0316 µM, first compound 0.00316 µM): 84.5%
viability, T/C (second compound 0.0316 µM, first compound 0.01 µM): 105%
viability, T/C [1]: 104%
viability, T/C [2]: 97.3%
viability, T/C (second compound 0.1 µM, first compound 0.000316 µM): 101%
viability, T/C (second compound 0.1 µM, first compound 0.001 µM): 99%
viability, T/C (second compound 0.1 µM, first compound 0.00316 µM): 95.7%
viability, T/C (second compound 0.1 µM, first compound 0.01 µM): 107%
viability, T/C [7]: 107%
viability, T/C [8]: 102%
viability, T/C (second compound 0.316 µM, first compound 0.000316 µM): 99.2%
viability, T/C (second compound 0.316 µM, first compound 0.001 µM): 95.5%
viability, T/C (second compound 0.316 µM, first compound 0.00316 µM): 106%
viability, T/C (second compound 0.316 µM, first compound 0.01 µM): 99.8%
viability, T/C [13]: 108%
viability, T/C [14]: 104%
viability, T/C (second compound 1 µM, first compound 0.000316 µM): 91.3%
viability, T/C (second compound 1 µM, first compound 0.001 µM): 96%
viability, T/C (second compound 1 µM, first compound 0.00316 µM): 97.9%
viability, T/C (second compound 1 µM, first compound 0.01 µM): 94.8%
viability, T/C [19]: 88.5%
viability, T/C [20]: 81.3%
